Test results: patent US20260092054A1, “FUSED RING COMPOUND AND PHARMACEUTICAL CONTAINING SAME” (KAKEN PHARMACEUTICAL CO., LTD., priority 2022, published 2026)
pIC50: −log10 of the molar value.

Assays:
human STAT6/pIL-4Rα = target: T1, human STAT6/pIL-4Rα (Homo sapiens, UniProt P42226); assay: Binding inhibitory activity between human STAT6/pIL-4Rα by fluorescence polarization method; conditions: rhSTAT6 (123-658) / FAM-pIL-4Rα peptide
T1 construct: histidine tag
T1 sequence (P42226 123-658): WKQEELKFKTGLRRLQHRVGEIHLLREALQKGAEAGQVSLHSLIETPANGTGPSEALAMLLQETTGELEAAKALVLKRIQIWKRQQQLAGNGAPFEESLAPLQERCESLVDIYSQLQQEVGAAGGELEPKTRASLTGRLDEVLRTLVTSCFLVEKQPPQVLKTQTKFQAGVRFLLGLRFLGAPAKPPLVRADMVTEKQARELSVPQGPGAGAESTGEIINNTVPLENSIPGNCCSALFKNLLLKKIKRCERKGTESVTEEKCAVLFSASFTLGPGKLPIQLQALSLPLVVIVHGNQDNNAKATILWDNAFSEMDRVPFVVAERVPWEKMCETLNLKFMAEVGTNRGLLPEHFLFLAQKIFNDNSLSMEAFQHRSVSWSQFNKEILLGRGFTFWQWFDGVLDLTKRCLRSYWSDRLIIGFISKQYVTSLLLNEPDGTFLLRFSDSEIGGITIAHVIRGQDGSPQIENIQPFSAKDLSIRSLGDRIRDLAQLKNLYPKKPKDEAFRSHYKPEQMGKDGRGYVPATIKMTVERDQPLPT
How it was run: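 His-tagged human STAT6 (residues 123–658, E. coli-expressed) was preincubated with compound for 30 min at RT in the dark, in buffer e.g. 50 mM NaCl, 10 mM HEPES pH 7.0, 1 mM DTT, 1 mM EDTA, 0.01% NP-40. FAM-pIL-4Rα peptide was then added for 30 min. Fluorescence polarisation was read at 485/535 nm, with IC50 interpolated linearly between two points flanking 50%.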

human STAT6 = assay: Human STAT6 dependent reporter activity (IL-4 stimulated STAT6 reporter assay using STAT6-HEK293 cells); format: cell-based; conditions: Homo sapiens, IL-4 stimulation, luciferase activity, read-out: Inhibition rate (%); for inhibition at 0.1 µM: compound 0.1 μmol/L; for inhibition at 1 µM: compound 1 μmol/L

SMILES	pIC50 (human STAT6/pIL-4Rα)	inhibition at 0.1 µM (human STAT6)	inhibition at 1 µM (human STAT6)
CCn1c(-c2ccc(N3C(=O)C(C)CC3C)cc2)nc2cc(C(F)(F)F)cc(C(=O)Nc3cccc(C(N)=O)c3F)c21 (centres unmarked) [Ex. 218]	6.17	38%	89%
CCn1c(-c2ccc(N3C(=O)C(C)CC3C)cc2)nc2cc(C(F)(F)F)cc(C(=O)Nc3cccc(C(N)=O)c3)c21 (single isomer, unassigned) [Ex. 12]	6.46	47%	94%
CCn1c(-c2ccc(-n3cccn3)cc2)nc2cc(Br)cc(C(=O)Nc3cccc(C(N)=O)c3)c21 [Ex. 5]	6.18	8%	63%
Cc1nn(C)c(=O)n1-c1ccc(-c2cc3cccc(C(=O)Nc4cccc(C(N)=O)c4F)c3n2CC2CC2)cc1 [Ex. 119]	6.42	95%	
CCn1c(-c2ccc(-n3c(C)nn(C)c3=O)cc2)cc2cc(C(F)(F)F)cc(C(=O)Nc3ccc(F)c(C(N)=O)c3)c21 [Ex. 39]	5.92	84%	99%
Cc1nn(C)c(=O)n1-c1ccc(-c2cc3ccnc(C(=O)Nc4cccc(C(N)=O)c4F)c3n2CCOCC(F)(F)F)cc1 [Ex. 113]	6.36	44%	96%
CCn1c(-c2ccc(N3C(=O)C(C)CC3C)cc2)cc2cc(C(F)(F)F)nc(C(=O)Nc3ccc(F)c(C(N)=O)c3)c21 (centres unmarked) [Ex. 135]	6.28	85%	
CCn1c(-c2ccc(-n3c(C)nn(C)c3=O)cc2)cc2cccc(C(=O)Nc3ccc(F)c(C(N)=O)c3)c21 [Ex. 17]	6.46	81%	99%
COCCn1c(-c2ccc(-n3c(C)nn(C)c3=O)cc2)cc2cc(C(F)(F)F)cc(C(=O)Nc3ccc(C)nc3)c21 [Ex. 73]	6.43	72%	100%
CCn1c(-c2ccc(C(=O)N(C)C)cc2)cc2cc(C(F)(F)F)cc(C(=O)Nc3ccc(F)c(C(N)=O)c3)c21 [Ex. 153]	6.03	25%	93%
CCn1c(-c2ccc(N3C(=O)C(C)CC3C)cc2)cc2ccnc(C(=O)Nc3ccc(F)c(C(=O)NCC#N)c3)c21 (centres unmarked) [Ex. 147]	6.11	48%	91%
CNC(=O)c1cc(NC(=O)c2cc(C(F)(F)F)cc3cc(-c4ccc(-n5c(C)nn(C)c5=O)cc4)n(CCOC)c23)ccc1F [Ex. 51]	6.31	13%	82%
COCCn1c(-c2ccc(N3C(=O)C(C)CC3C)cc2)cc2cc(C(F)(F)F)nc(C(=O)Nc3cccc(C(N)=O)c3)c21 (centres unmarked) [Ex. 132]	6.28	70%	96%
CCn1c(-c2ccc3c(c2)CCN3C(C)=O)nc2cc(Br)cc(C(=O)Nc3cccc(C(N)=O)c3)c21 [Ex. 8]	6.39	2%	43%
CCn1c(-c2ccc(-n3c(C)nn(C)c3=O)cc2)cc2cc(C(F)(F)F)cc(C(=O)Nc3cccc(OC)n3)c21 [Ex. 102]	5.55		60%
CCn1c(-c2ccc(-n3c(C)nn(C)c3=O)cc2)cc2nc(C(F)(F)F)cc(C(=O)Nc3cccc(C(N)=O)c3F)c21 [Ex. 75]	6.44	36%	93%
CCn1c(-c2ccc(-n3c(C)nn(C)c3=O)cc2)cc2ncnc(C(=O)Nc3ccc(F)c(C(N)=O)c3)c21 [Ex. 110]	6.37	65%	
COCCn1c(-c2ccc(-n3c(C)nn(C)c3=O)cc2)cc2cc(C(F)(F)F)cc(C(=O)Nc3ccc4c(c3)C(=O)NCC4)c21 [Ex. 62]	6.35	59%	99%
Cc1nn(C)c(=O)n1-c1ccc(-c2cc3ccnc(C(=O)Nc4cccc(C(N)=O)c4F)c3n2CC2CCC2)cc1 [Ex. 122]	6.16	23%	89%
CCn1c(-c2ccc3c(c2)CCN3C(C)=O)nc2cc(C(F)(F)F)cc(C(=O)Nc3cccc(C(N)=O)c3F)c21 [Ex. 2]	6.31	14%	72%

More lines, main results first:

pIC50 (human STAT6/pIL-4Rα)	SMILES	inhibition at 0.1 µM (human STAT6)	inhibition at 1 µM (human STAT6)
6.52	CCn1c(-c2ccc(-n3cnn(C)c3=O)cc2)c(Cl)c2cc(C(F)(F)F)cc(C(=O)Nc3ccc(F)c(C(N)=O)c3)c21 [Ex. 142]	94%	100%
6.62	COCCn1c(-c2ccc(-n3c(C)nn(C)c3=O)cc2)cc2cc(C(F)(F)F)cc(C(=O)Nc3nnc(C)s3)c21 [Ex. 84]	93%	100%
6.47	CCn1c(-c2ccc(-n3c(C)nn(C)c3=O)cc2)cc2ccnc(C(=O)Nc3cccc(C(=O)Nc4ccc(C)n(C)c4=O)c3)c21 [Ex. 187]	88%	
6.48	CCn1c(-c2ccc(-n3c(C)nn(C)c3=O)cc2)cc2ccnc(C(=O)Nc3cccc(C(=O)Nc4cccn(C(F)F)c4=O)c3)c21 [Ex. 186]	43%	96%
6.55	Cc1nn(C)c(=O)n1-c1ccc(-c2cc3cc(C(F)(F)F)nc(C(=O)Nc4cccc(C(N)=O)c4)c3n2C)cc1 [Ex. 93]	67%	96%
7.00	COCCn1c(-c2ccc(-n3c(C)nn(C)c3=O)cc2)cc2cc(C(F)(F)F)cc(C(=O)Nc3cccc(C(N)=O)c3F)c21 [Ex. 33]	75%	100%
6.52	COCCn1c(-c2ccc(-n3c(C)nn(C)c3=O)cc2)cc2cc(C(F)(F)F)cc(C(=O)Nc3cccc(C(=O)Nc4ccn(CC5CC5)n4)c3)c21 [Ex. 180]	100%	
6.47	COCCn1c(-c2ccc(-n3c(C)nn(C)c3=O)cc2)cc2cc(C(F)(F)F)cc(C(=O)Nc3nccs3)c21 [Ex. 85]	11%	73%
6.54	CCn1c(-c2ccc(-n3c(C)nn(C)c3=O)cc2)cc2ccnc(C(=O)Nc3ccc(F)c(C(=O)Nc4cn(C)c(=O)n(C)c4=O)c3)c21 [Ex. 191]	63%	
6.64	COCCn1c(-c2ccc(-n3c(C)nn(C)c3=O)cc2)cc2cc(C(F)(F)F)cc(C(=O)Nc3cccc(C(=O)Nc4ccn(CC#N)n4)c3)c21 [Ex. 183]	86%	
6.47	CCn1c(-c2ccc(-n3c(C)nn(C)c3=O)cc2F)cc2cc(C(F)(F)F)cc(C(=O)Nc3ccc(F)c(C(N)=O)c3)c21 [Ex. 72]	65%	97%
6.64	Cc1nn(C)c(=O)n1-c1ccc(-c2cc3cc(C(F)(F)F)nc(C(=O)Nc4ccc(F)c(C(N)=O)c4)c3n2C)cc1 [Ex. 92]	74%	99%
6.55	CCn1c(-c2ccc(N3C(=O)C(C)CC3C)cc2)nc2cc(C(F)(F)F)cc(C(=O)Nc3cccc(C(N)=O)c3F)c21 (single isomer, unassigned) [Ex. 219]	32%	96%
6.57	COCCn1c(-c2ccc(-n3c(C)nn(C)c3=O)cc2)cc2ccnc(C(=O)Nc3cccc(C(=O)Nc4cccn(C)c4=O)c3)c21 [Ex. 196]	81%	
6.60	COCCn1c(-c2ccc(-n3c(C)nn(C)c3=O)cc2)cc2ccnc(C(=O)Nc3cccc(C(=O)Nc4cccc(OC)n4)c3)c21 [Ex. 197]	73%	
